Data on 6 molecules can be found in ChEMBL document CHEMBL1201862, “PubChem BioAssay data set” (2004).

Active and inactive are the calls of the source. Cut-off read from the data, not from the text of the source, for most assays here: actives have a measured EC50 and inactives only a lower limit.

Assay [1] deals with T1, Zinc finger protein mex-5 (Caenorhabditis elegans, UniProt Q9XUB2).
T1 sequence (Q9XUB2 whole entry): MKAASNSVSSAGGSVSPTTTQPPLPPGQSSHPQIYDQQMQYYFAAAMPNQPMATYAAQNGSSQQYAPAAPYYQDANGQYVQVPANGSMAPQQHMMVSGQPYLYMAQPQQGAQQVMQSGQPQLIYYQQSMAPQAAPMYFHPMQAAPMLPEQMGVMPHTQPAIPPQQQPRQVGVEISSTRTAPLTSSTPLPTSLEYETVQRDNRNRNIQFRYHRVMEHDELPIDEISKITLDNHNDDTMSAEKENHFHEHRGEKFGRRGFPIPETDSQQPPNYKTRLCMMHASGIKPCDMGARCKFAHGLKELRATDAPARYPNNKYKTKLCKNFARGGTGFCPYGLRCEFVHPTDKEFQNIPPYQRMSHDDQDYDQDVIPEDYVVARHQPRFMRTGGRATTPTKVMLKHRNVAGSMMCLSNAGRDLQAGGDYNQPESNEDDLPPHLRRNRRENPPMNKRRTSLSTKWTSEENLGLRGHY
The assay is described as follows: MEX-5/TCR-2 RNA interaction inhibitors, dose response, biochemical, C. elegans, fluorescence polarization (AID 1960).

Assay [2] addresses T2, RNA-binding protein pos-1 (Caenorhabditis elegans, UniProt G5EF15).
T2 sequence (G5EF15 whole entry): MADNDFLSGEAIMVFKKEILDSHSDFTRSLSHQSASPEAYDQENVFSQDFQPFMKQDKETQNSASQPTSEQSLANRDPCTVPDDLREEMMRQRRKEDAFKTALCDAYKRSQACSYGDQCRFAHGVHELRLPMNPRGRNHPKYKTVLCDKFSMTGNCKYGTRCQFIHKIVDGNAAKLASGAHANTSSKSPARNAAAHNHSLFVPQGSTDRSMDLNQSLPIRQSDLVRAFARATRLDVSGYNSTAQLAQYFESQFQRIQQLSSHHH
The assay is described as follows: inhibitors of POS-1/mex-3 RNA binding, dose response, biochemical, fluorescence polarization (AID 1964).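 Note: purified POS-1 fused to maltose binding protein made in E. coli; potency of compounds blocking POS-1 binding to fluorescent RNA.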

For the next assay, the target named is T3, Protein RecA (Mycobacterium tuberculosis, UniProt P9WHJ3).
T3 sequence (P9WHJ3 whole entry): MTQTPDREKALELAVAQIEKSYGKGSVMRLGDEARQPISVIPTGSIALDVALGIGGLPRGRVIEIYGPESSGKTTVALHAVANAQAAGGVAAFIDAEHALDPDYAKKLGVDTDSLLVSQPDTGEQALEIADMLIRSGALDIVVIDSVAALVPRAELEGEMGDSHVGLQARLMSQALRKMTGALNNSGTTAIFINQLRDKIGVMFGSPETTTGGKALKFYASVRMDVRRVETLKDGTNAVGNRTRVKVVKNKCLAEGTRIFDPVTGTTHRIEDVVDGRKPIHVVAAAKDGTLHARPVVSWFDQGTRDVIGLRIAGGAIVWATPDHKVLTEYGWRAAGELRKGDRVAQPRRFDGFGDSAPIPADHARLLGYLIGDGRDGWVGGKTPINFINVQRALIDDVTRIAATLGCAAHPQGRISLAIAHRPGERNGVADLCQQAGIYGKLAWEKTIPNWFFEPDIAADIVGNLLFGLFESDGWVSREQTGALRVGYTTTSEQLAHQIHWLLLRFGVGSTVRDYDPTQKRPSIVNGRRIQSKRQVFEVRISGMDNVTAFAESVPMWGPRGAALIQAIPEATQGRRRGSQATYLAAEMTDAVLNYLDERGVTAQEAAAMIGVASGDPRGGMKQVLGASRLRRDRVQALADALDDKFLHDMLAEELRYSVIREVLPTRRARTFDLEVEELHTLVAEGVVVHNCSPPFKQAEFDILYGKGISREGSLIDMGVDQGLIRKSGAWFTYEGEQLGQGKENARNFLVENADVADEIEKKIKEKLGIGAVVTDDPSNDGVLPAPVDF
The assay is described as follows: Fluorescence Cell-Free Homogeneous Dose Retest to Identify Inhibitors of RecA-Intein Splicing Activity. [Related pubchem assays (depositor defined):AID2097, AID2223, AID489010, AID492950]. The assay is classed as functional.

In assay [3] the target is T4, Histone-lysine N-methyltransferase NSD2 (Homo sapiens, UniProt O96028).
T4 sequence (O96028 whole entry): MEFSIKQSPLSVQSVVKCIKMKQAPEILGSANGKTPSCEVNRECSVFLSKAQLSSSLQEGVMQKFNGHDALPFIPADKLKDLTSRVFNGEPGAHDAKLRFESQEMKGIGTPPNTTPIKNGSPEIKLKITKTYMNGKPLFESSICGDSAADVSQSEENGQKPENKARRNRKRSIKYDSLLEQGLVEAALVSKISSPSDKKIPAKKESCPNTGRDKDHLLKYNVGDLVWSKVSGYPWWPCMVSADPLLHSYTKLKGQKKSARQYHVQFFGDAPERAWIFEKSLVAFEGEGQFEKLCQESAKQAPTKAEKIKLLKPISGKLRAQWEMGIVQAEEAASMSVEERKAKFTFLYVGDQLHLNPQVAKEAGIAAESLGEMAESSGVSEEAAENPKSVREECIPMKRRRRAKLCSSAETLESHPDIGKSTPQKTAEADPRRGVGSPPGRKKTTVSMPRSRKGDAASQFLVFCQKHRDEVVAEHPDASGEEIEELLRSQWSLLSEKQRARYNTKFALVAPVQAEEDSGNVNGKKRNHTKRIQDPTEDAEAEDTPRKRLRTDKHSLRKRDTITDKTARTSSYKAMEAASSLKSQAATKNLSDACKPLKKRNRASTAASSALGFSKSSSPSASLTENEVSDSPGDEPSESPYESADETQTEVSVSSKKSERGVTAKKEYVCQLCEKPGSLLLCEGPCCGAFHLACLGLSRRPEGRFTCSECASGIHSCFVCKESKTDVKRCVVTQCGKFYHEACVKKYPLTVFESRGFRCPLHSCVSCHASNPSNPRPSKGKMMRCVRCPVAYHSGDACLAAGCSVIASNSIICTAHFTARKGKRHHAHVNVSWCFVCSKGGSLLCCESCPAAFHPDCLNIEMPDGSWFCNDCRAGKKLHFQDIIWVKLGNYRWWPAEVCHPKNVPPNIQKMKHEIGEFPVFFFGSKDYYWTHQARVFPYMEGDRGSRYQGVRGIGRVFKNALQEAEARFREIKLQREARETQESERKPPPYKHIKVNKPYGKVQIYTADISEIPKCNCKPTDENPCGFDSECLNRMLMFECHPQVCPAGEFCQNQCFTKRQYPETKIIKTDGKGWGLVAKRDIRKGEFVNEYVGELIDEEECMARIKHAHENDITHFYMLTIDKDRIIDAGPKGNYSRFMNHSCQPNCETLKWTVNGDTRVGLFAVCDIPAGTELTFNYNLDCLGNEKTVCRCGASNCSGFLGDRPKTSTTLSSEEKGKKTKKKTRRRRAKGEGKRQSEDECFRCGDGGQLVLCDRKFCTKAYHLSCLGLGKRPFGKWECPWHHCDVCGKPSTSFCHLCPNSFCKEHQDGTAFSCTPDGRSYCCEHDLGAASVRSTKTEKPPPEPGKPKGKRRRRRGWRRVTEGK
It is filed as biochemical.

Turning to `Oc1ccc(NC(=S)N=Nc2c(O)[nH]c3ccccc23)cc1`, the EC50 in assay [1] is 3.98 µM (active); in assay [2] it was 16.3 µM (active).
For `N#Cc1c(N2CCCCC2)nc(N)c2c(N)nc(SCC(=O)O)cc12`, the EC50 on Protein RecA was 9.14 µM (active).
On to `CC1(C)Cc2ccccc2C2=NNC(=O)C2=N1`, for which the AC50 in assay [3] was 16.4 µM (active). The EC50 at Protein RecA was 1.17 µM (active).
As for `CCc1ccc(S(=O)(=O)Nc2cc(SCC(=O)O)c(O)c3ccccc23)cc1`, the EC50 in assay [1] was 11.5 µM (active); in assay [2], 35.5 µM (active); at Protein RecA, 0.217 µM (active). In assay [3], the AC50 was 4.83 µM (active).
`O=[N+]([O-])c1ccc(Sc2cccc[n+]2[O-])c2nonc12`: the AC50 in assay [3] was 5.12 µM (active). For the same molecule, the EC50 on Protein RecA is 4.93 µM (active).
Turning to `Oc1c(Cl)cc(Cl)c(Cl)c1Cc1c(O)c(Cl)cc(Cl)c1Cl` [HEXACHLOROPHENE], the EC50 is 19.1 µM (inconclusive) in assay [1], 45.4 µM (inconclusive) in assay [2] and 7.27 µM (active) at Protein RecA.
